Results taken from US9944602B2, “Piperidinone herbicides” (E. I. DU PONT DE NEMOURS AND COMPANY, priority 2014, dated 2018).

Legend:
Format in all cases: in vivo
[1] = test system: barnyardgrass (Echinochloa crus-galli); assay: Test A preemergence barnyardgrass; conditions: 0 to 100 scale, 0 no effect, 100 complete control
How it was run: (§1)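 Both application timings used the same loam-and-sand medium and the same solvent–surfactant formulation. Postemergence plants were 2–10 cm at the one- to two-leaf stage. After roughly 10 d of greenhouse growth, injury was judged visually against untreated plants, where 0 is no effect and 100 complete control.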

kochia (Kochia scoparia) [2] = assay: Test A preemergence kochia; conditions: 0 to 100 scale, 0 no effect, 100 complete control
How it was run: as §1

[3] = test system: ragweed (common ragweed, Ambrosia elatior); assay: Test A preemergence ragweed; conditions: 0 to 100 scale, 0 no effect, 100 complete control
How it was run: as §1

[4] = test system: ryegrass, Italian (Italian ryegrass, Lolium multiflorum); assay: Test A preemergence ryegrass, Italian; conditions: 0 to 100 scale, 0 no effect, 100 complete control
How it was run: as §1

[5] = test system: foxtail, giant (giant foxtail, Setaria faberii); assay: Test A preemergence foxtail, giant; conditions: 0 to 100 scale, 0 no effect, 100 complete control
How it was run: as §1

[6] = test system: pigweed (Amaranthus retroflexus); assay: Test A preemergence pigweed; conditions: 0 to 100 scale, 0 no effect, 100 complete control
How it was run: as §1

[7] = test system: barnyardgrass (Echinochloa crus-galli); assay: Test A postemergence barnyardgrass; conditions: 0 to 100 scale, 0 is no effect, 100 is complete control
How it was run: as §1

kochia (Kochia scoparia) [8] = assay: Test A postemergence kochia; conditions: 0 to 100 scale, 0 is no effect, 100 is complete control
How it was run: as §1

[9] = test system: ragweed (common ragweed, Ambrosia elatior); assay: Test A postemergence ragweed; conditions: 0 to 100 scale, 0 is no effect, 100 is complete control
How it was run: as §1

[10] = test system: ryegrass, Italian (Italian ryegrass, Lolium multiflorum); assay: Test A postemergence ryegrass, Italian; conditions: 0 to 100 scale, 0 is no effect, 100 is complete control
How it was run: as §1

[11] = test system: foxtail, giant (giant foxtail, Setaria faberii); assay: Test A postemergence foxtail, giant; conditions: 0 to 100 scale, 0 is no effect, 100 is complete control
How it was run: as §1

[12] = test system: pigweed (Amaranthus retroflexus); assay: Test A postemergence pigweed; conditions: 0 to 100 scale, 0 is no effect, 100 is complete control
How it was run: as §1

[13] = test system: wheat (Triticum aestivum); assay: Test A postemergence wheat; conditions: 0 to 100 scale, 0 is no effect, 100 is complete control
How it was run: as §1

corn (Zea mays) = assay: Test A postemergence corn; conditions: 0 to 100 scale, 0 is no effect, 100 is complete control
How it was run: as §1

[14] = test system: blackgrass (Alopecurus myosuroides); assay: Test A postemergence blackgrass; conditions: 0 to 100 scale, 0 is no effect, 100 is complete control
How it was run: as §1

[15] = test system: galium (catchweed bedstraw, Galium aparine); assay: Test A postemergence galium; conditions: 0 to 100 scale, 0 is no effect, 100 is complete control
How it was run: as §1

rice (Oryza sativa) = assay: Test B flooded paddy test rice; conditions: Table B, Flood, scale 0 to 100
How it was run: (§2)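 Water-applied paddy treatment: compound dosed into 3 cm flood on 2-leaf plants, read visually versus controls after 13 to 15 d.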

[16] = test system: sedge, umbrella (small-flower umbrella sedge, Cyperus difformis); assay: Test B flooded paddy test sedge, umbrella; conditions: Table B, Flood, scale 0 to 100
How it was run: as §2

[17] = test system: ducksalad (Heteranthera limosa); assay: Test B flooded paddy test ducksalad; conditions: Table B, Flood, scale 0 to 100
How it was run: as §2

[18] = test system: barnyardgrass (Echinochloa crus-galli); assay: Test B flooded paddy test barnyardgrass; conditions: Table B, Flood, scale 0 to 100
How it was run: as §2

Row | SMILES | Barnyardgrass plant response rating ([1]; 125 g ai/ha) | Barnyardgrass plant response rating ([1]; 500 g ai/ha) | Kochia plant response rating (kochia (Kochia scoparia) [2]; 125 g ai/ha) | Kochia plant response rating (kochia (Kochia scoparia) [2]; 500 g ai/ha) | Ragweed plant response rating ([3]; 125 g ai/ha) | Ragweed plant response rating ([3]; 500 g ai/ha) | Ryegrass, Italian plant response rating ([4]; 125 g ai/ha) | Ryegrass, Italian plant response rating ([4]; 500 g ai/ha) | Foxtail, Giant plant response rating ([5]; 125 g ai/ha) | Foxtail, Giant plant response rating ([5]; 500 g ai/ha) | Pigweed plant response rating ([6]; 125 g ai/ha) | Pigweed plant response rating ([6]; 500 g ai/ha) | Plant response rating, Barnyardgrass ([7]; 125 g ai/ha) | Plant response rating, Barnyardgrass ([7]; 500 g ai/ha) | Plant response rating, Kochia (kochia (Kochia scoparia) [8]; 125 g ai/ha) | Plant response rating, Kochia (kochia (Kochia scoparia) [8]; 500 g ai/ha) | Plant response rating, Ragweed ([9]; 125 g ai/ha) | Plant response rating, Ragweed ([9]; 500 g ai/ha) | Plant response rating, Ryegrass, Italian ([10]; 125 g ai/ha) | Plant response rating, Ryegrass, Italian ([10]; 500 g ai/ha) | other results
1 | O=C1NCCC(c2ccc(C(F)(F)F)cc2)C1C(=O)Nc1cccc(F)c1Cl (racemic) [Compound 15] | 60 | 80 | 0 | 0 | 0 | 80 | 0 | 0 | 80 | 90 | 0 | 0 | 60 | 70 | 10 | 60 | 0 | 40 | 0 | 0 | Plant response rating, Foxtail, Giant ([11]; 125 g ai/ha): 70; Plant response rating, Foxtail, Giant ([11]; 500 g ai/ha): 80; Plant response rating, Pigweed ([12]; 125 g ai/ha): 0; Plant response rating, Pigweed ([12]; 500 g ai/ha): 0; Plant response rating, Wheat ([13]; 125 g ai/ha): 0; Plant response rating, Wheat ([13]; 500 g ai/ha): 0; Plant response rating, Corn (corn (Zea mays); 125 g ai/ha): 0; Plant response rating, Corn (corn (Zea mays); 500 g ai/ha): 0; Plant response rating, Blackgrass ([14]; 125 g ai/ha): 20; Plant response rating, Blackgrass ([14]; 500 g ai/ha): 50; Plant response rating, Galium ([15]; 125 g ai/ha): 30; Plant response rating, Galium ([15]; 500 g ai/ha): 70; Plant response rating (rice (Oryza sativa); 500 g ai/ha): 0; Plant response rating ([16]; 500 g ai/ha): 0; Plant response rating ([17]; 500 g ai/ha): 60; Plant response rating ([18]; 500 g ai/ha): 40
2 | O=C(Nc1ccccc1C(F)(F)F)C1C(=O)N(Cc2ccccc2)CCC1c1ccc(F)cc1 (stereo not drawn) [Compound 51] | 0 | 0 | 0 | 0 | 0 | 0 | 0 | 0 | 0 | 0 | 0 | 0 | 0 | 0 | 0 | 0 | 0 | 0 | 0 | 0 | Plant response rating, Foxtail, Giant ([11]; 125 g ai/ha): 0; Plant response rating, Foxtail, Giant ([11]; 500 g ai/ha): 0; Plant response rating, Pigweed ([12]; 125 g ai/ha): 0; Plant response rating, Pigweed ([12]; 500 g ai/ha): 0; Plant response rating, Wheat ([13]; 125 g ai/ha): 0; Plant response rating, Wheat ([13]; 500 g ai/ha): 0; Plant response rating, Corn (corn (Zea mays); 125 g ai/ha): 0; Plant response rating, Corn (corn (Zea mays); 500 g ai/ha): 0; Plant response rating, Blackgrass ([14]; 125 g ai/ha): 0; Plant response rating, Blackgrass ([14]; 500 g ai/ha): 0; Plant response rating, Galium ([15]; 125 g ai/ha): 0; Plant response rating, Galium ([15]; 500 g ai/ha): 0; Plant response rating (rice (Oryza sativa); 250 g ai/ha): 0; Plant response rating ([16]; 250 g ai/ha): 0; Plant response rating ([17]; 250 g ai/ha): 0; Plant response rating ([18]; 250 g ai/ha): 0
3 | CS(=O)(=O)c1ccccc1NC(=O)C1C(=O)NCCC1c1cccc(C(F)(F)F)c1 (racemic) [Compound 32] | 20 | 90 | 0 | 20 | 0 | 0 | 0 | 30 | 70 | 90 | 0 | 0 | 60 | 70 | 0 | 20 | 0 | 0 | 0 | 20 | Plant response rating, Foxtail, Giant ([11]; 125 g ai/ha): 40; Plant response rating, Foxtail, Giant ([11]; 500 g ai/ha): 40; Plant response rating, Pigweed ([12]; 125 g ai/ha): 0; Plant response rating, Pigweed ([12]; 500 g ai/ha): 0; Plant response rating, Wheat ([13]; 125 g ai/ha): 0; Plant response rating, Wheat ([13]; 500 g ai/ha): 0; Plant response rating, Corn (corn (Zea mays); 125 g ai/ha): 0; Plant response rating, Corn (corn (Zea mays); 500 g ai/ha): 30; Plant response rating, Blackgrass ([14]; 125 g ai/ha): 0; Plant response rating, Blackgrass ([14]; 500 g ai/ha): 0; Plant response rating, Galium ([15]; 125 g ai/ha): 0; Plant response rating, Galium ([15]; 500 g ai/ha): 0; Plant response rating (rice (Oryza sativa); 500 g ai/ha): 0; Plant response rating ([16]; 500 g ai/ha): 0; Plant response rating ([17]; 500 g ai/ha): 40; Plant response rating ([18]; 500 g ai/ha): 0
4 | O=C1NCCC(c2cccc(OC(F)(F)F)c2)C1C(=O)Nc1ccccc1C(F)(F)F (racemic) [Compound 38] | 30 | 80 | 0 | 0 | 0 | 0 | 0 | 0 | 50 | 80 | 0 | 0 | 50 | 70 | 0 | 0 | 0 | 0 | 0 | 0 | Plant response rating, Foxtail, Giant ([11]; 125 g ai/ha): 0; Plant response rating, Foxtail, Giant ([11]; 500 g ai/ha): 60; Plant response rating, Pigweed ([12]; 125 g ai/ha): 0; Plant response rating, Pigweed ([12]; 500 g ai/ha): 0; Plant response rating, Wheat ([13]; 125 g ai/ha): 0; Plant response rating, Wheat ([13]; 500 g ai/ha): 0; Plant response rating, Corn (corn (Zea mays); 125 g ai/ha): 0; Plant response rating, Corn (corn (Zea mays); 500 g ai/ha): 0; Plant response rating, Blackgrass ([14]; 125 g ai/ha): 0; Plant response rating, Blackgrass ([14]; 500 g ai/ha): 0; Plant response rating, Galium ([15]; 125 g ai/ha): 0; Plant response rating, Galium ([15]; 500 g ai/ha): 0; Plant response rating (rice (Oryza sativa); 250 g ai/ha): 0; Plant response rating ([16]; 250 g ai/ha): 0; Plant response rating ([17]; 250 g ai/ha): 85; Plant response rating ([18]; 250 g ai/ha): 35
5 | Cc1c(F)cccc1NC(=O)C1C(=O)NCCC1c1cccc(C(F)(F)F)c1 (racemic) [Compound 26] | 30 | 90 | 0 | 0 | 0 | 0 | 0 | 50 | 60 | 90 | 0 | 0 | 30 | 80 | 0 | 0 | 0 | 0 | 20 | 20 | Plant response rating, Foxtail, Giant ([11]; 125 g ai/ha): 30; Plant response rating, Foxtail, Giant ([11]; 500 g ai/ha): 90; Plant response rating, Pigweed ([12]; 125 g ai/ha): 0; Plant response rating, Pigweed ([12]; 500 g ai/ha): 0; Plant response rating, Wheat ([13]; 125 g ai/ha): 0; Plant response rating, Wheat ([13]; 500 g ai/ha): 20; Plant response rating, Corn (corn (Zea mays); 125 g ai/ha): 20; Plant response rating, Corn (corn (Zea mays); 500 g ai/ha): 40; Plant response rating, Blackgrass ([14]; 125 g ai/ha): 0; Plant response rating, Blackgrass ([14]; 500 g ai/ha): 40; Plant response rating, Galium ([15]; 125 g ai/ha): 0; Plant response rating, Galium ([15]; 500 g ai/ha): 0; Plant response rating (rice (Oryza sativa); 500 g ai/ha): 0; Plant response rating ([16]; 500 g ai/ha): 0; Plant response rating ([17]; 500 g ai/ha): 50; Plant response rating ([18]; 500 g ai/ha): 40
